Source: ChEMBL document CHEMBL2203030, “Synthesis, characterization, antidepressant and antioxidant activity of novel piperamides bearing piperidine and piperazine analogues” (Bioorg Med Chem Lett, 2012)
≈ marks a conversion by molar mass, not a printed value.

What was measured:
Pseudomonas aeruginosa [1] = experiment: Antimicrobial activity against Pseudomonas aeruginosa NCIM 5029 at 10 ug/disc incubated for 24 hrs by agar disc diffusion method; type: functional; settings: NCIM 5029, 24 h, read-out: IZ
Staphylococcus aureus [2] = experiment: Antimicrobial activity against Staphylococcus aureus NCIM 5021 by broth dilution method; type: functional
Staphylococcus aureus [3] = experiment: Antimicrobial activity against Staphylococcus aureus NCIM 5021 at 10 ug/disc incubated for 24 hrs by agar disc diffusion method; type: functional; settings: NCIM 5021, 24 h, read-out: IZ
Pseudomonas aeruginosa [4] = experiment: Antimicrobial activity against Pseudomonas aeruginosa NCIM 5029 by broth dilution method; type: functional
Escherichia coli [5] = experiment: Antimicrobial activity against Escherichia coli NCIM 2574 at 10 ug/disc incubated for 24 hrs by agar disc diffusion method; type: functional; settings: NCIM 2574, 24 h, read-out: IZ
Bacillus subtilis [6] = experiment: Antimicrobial activity against Bacillus subtilis NCIM 2999 by broth dilution method; type: functional
Bacillus subtilis [7] = experiment: Antimicrobial activity against Bacillus subtilis NCIM 2999 at 10 ug/disc incubated for 24 hrs by agar disc diffusion method; type: functional; settings: NCIM 2999, 24 h, read-out: IZ
Escherichia coli [8] = experiment: Antimicrobial activity against Escherichia coli NCIM 2574 by broth dilution method; type: functional
Mus musculus [9] = experiment: Antidepressant activity in Swiss albino mouse assessed as mean immobility time measured during last 4 mins of single 6 mins test session at 20 mg/kg, po by forced swim test (reference value: 75.33 +/- 3.35 secs); type: functional
Candida albicans [10] = experiment: Antimicrobial activity against Candida albicans NCIM 3471 by broth dilution method; type: functional
Pseudomonas aeruginosa [11] = experiment: Antimicrobial activity against Pseudomonas aeruginosa NCIM 5029 at 100 ug/mL incubated for 24 hrs by agar disc diffusion method; type: functional; settings: NCIM 5029, 24 h, read-out: IZ
Aspergillus flavus [12] = experiment: Antimicrobial activity against Aspergillus flavus NCIM 524 at 100 ug/mL incubated for 48 hrs by agar disc diffusion method; type: functional; settings: NCIM 524, 48 h, read-out: IZ
[13] = system: Radical scavenging activity; experiment: Antioxidant activity assessed as DPPH free radical scavenging activity by spectrophotometry; type: functional
Mus musculus [14] = experiment: Antidepressant activity in Swiss albino mouse assessed as mean immobility time measured during 6 mins period at 20 mg/kg, po administered 30 mins before test by tail suspension test (reference value: 185.7 +/- 5.33 secs); type: functional
Escherichia coli [15] = experiment: Antimicrobial activity against Escherichia coli NCIM 2574 at 100 ug/mL incubated for 24 hrs by agar disc diffusion method; type: functional; settings: NCIM 2574, 24 h, read-out: IZ
Staphylococcus aureus [16] = experiment: Antimicrobial activity against Staphylococcus aureus NCIM 5021 at 100 ug/mL incubated for 24 hrs by agar disc diffusion method; type: functional; settings: NCIM 5021, 24 h, read-out: IZ
Aspergillus flavus [17] = experiment: Antimicrobial activity against Aspergillus flavus NCIM 524 by broth dilution method; type: functional
Bacillus subtilis [18] = experiment: Antimicrobial activity against Bacillus subtilis NCIM 2999 at 100 ug/mL incubated for 24 hrs by agar disc diffusion method; type: functional; settings: NCIM 2999, 24 h, read-out: IZ
Candida albicans [19] = experiment: Antimicrobial activity against Candida albicans NCIM 3471 at 100 ug/mL incubated for 48 hrs by agar disc diffusion method; type: functional; settings: NCIM 3471, 48 h, read-out: IZ
[20] = Antioxidant activity assessed as superoxide scavenging activity using xanthine-xanthine oxidase system by NBT dye reduction based assay; type: functional
[21] = molecular target: T1, Amine oxidase [flavin-containing] B (Mus musculus, UniProt Q8BW75); experiment: Inhibition of MAOB in mouse brain mitochondrial fraction assessed as enzyme activity per mg of protein using beta-PEA substrate incubated for 20 mins by UV-spectrophotometry; type: tissue-based
T1 sequence (Q8BW75 whole entry): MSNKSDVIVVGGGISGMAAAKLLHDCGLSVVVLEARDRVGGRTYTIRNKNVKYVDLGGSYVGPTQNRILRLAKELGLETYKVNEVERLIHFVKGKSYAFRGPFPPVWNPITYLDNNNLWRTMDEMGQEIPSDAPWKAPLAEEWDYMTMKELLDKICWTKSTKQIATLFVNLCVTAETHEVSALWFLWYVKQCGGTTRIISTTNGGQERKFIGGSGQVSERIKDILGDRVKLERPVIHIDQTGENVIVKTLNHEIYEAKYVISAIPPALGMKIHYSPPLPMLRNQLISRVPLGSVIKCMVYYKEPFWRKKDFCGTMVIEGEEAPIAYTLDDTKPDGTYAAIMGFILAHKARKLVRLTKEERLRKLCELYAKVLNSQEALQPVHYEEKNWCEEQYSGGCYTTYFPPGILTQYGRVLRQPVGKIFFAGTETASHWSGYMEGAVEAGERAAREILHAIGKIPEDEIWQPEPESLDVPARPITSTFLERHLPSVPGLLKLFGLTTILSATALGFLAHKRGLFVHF

[22] = molecular target: T2, Amine oxidase [flavin-containing] A (Mus musculus, UniProt Q64133); experiment: Inhibition of MAOA in mouse brain mitochondrial fraction assessed as enzyme activity per mg of protein using 5-HT substrate incubated for 20 mins by UV-spectrophotometry; type: tissue-based
T2 sequence (Q64133 whole entry): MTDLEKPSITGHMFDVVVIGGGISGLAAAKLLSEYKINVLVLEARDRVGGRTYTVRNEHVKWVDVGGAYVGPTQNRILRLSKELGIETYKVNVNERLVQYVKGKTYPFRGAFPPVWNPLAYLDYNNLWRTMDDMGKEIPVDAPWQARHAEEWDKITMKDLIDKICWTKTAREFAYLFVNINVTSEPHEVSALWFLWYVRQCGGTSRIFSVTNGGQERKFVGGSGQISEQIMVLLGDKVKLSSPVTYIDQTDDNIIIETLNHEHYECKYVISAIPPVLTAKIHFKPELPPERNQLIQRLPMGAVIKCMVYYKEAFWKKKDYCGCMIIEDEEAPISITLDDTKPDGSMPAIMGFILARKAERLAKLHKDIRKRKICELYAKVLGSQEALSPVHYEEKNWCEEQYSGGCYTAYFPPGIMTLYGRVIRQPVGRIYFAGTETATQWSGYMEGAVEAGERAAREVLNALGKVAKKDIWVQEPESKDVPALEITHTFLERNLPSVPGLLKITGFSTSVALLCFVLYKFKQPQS

CN[C@@H]1[C@H](O[C@H]2[C@H](O[C@H]3[C@H](O)[C@@H](O)[C@H](N=C(N)N)[C@@H](O)[C@@H]3N=C(N)N)O[C@@H](C)[C@]2(O)C=O)O[C@@H](CO)[C@H](O)[C@H]1O [STREPTOMYCIN]
zone of inhibition at 10 µg/disc (Pseudomonas aeruginosa [1]): 14 mm | MIC (Staphylococcus aureus [2]): 5 µg/mL (≈ 8.6 µM) | zone of inhibition at 10 µg/disc (Staphylococcus aureus [3]): 11.6 mm | MIC (Pseudomonas aeruginosa [4]): 5 µg/mL (≈ 8.6 µM) | zone of inhibition at 10 µg/disc (Escherichia coli [5]): 14.5 mm | MIC (Bacillus subtilis [6]): 5 µg/mL (≈ 8.6 µM) | zone of inhibition at 10 µg/disc (Bacillus subtilis [7]): 10.4 mm | MIC (Escherichia coli [8]): 5 µg/mL (≈ 8.6 µM)

COc1cc(/C=C/C(=O)N2CCNCC2)cc2c1OCO2
MIC (Staphylococcus aureus [2]): 30 µg/mL (≈ 103 µM) | Time (Mus musculus [9]): 71 s | MIC (Candida albicans [10]): 25 µg/mL (≈ 86.1 µM) | zone of inhibition at 100 µg/mL (Pseudomonas aeruginosa [11]): 13 mm | zone of inhibition at 100 µg/mL (Aspergillus flavus [12]): 14 mm | IC50 [13]: 20.1 µg/mL (≈ 69.2 µM) | Time (Mus musculus [14]): 178 s | MIC (Pseudomonas aeruginosa [4]): 25 µg/mL (≈ 86.1 µM) | zone of inhibition at 100 µg/mL (Escherichia coli [15]): 11 mm | zone of inhibition at 100 µg/mL (Staphylococcus aureus [16]): 14 mm | MIC (Bacillus subtilis [6]): 50 µg/mL (≈ 172 µM) | MIC (Aspergillus flavus [17]): 15 µg/mL (≈ 51.7 µM) | zone of inhibition at 100 µg/mL (Bacillus subtilis [18]): 10 mm | zone of inhibition at 100 µg/mL (Candida albicans [19]): 10 mm | IC50 [20]: 38.4 µg/mL (≈ 132 µM) | MIC (Escherichia coli [8]): 20 µg/mL (≈ 68.9 µM)

COc1cc(/C=C/C(=O)N2CCCC(O)C2)cc2c1OCO2 (configuration not stated)
MIC (Staphylococcus aureus [2]): 50 µg/mL (≈ 164 µM) | Time (Mus musculus [9]): 35.4 s | MIC (Candida albicans [10]): 100 µg/mL (≈ 328 µM) | zone of inhibition at 100 µg/mL (Pseudomonas aeruginosa [11]): 12 mm | zone of inhibition at 100 µg/mL (Aspergillus flavus [12]): 10 mm | IC50 [13]: 13.4 µg/mL (≈ 43.9 µM) | Time (Mus musculus [14]): 84.2 s | MIC (Pseudomonas aeruginosa [4]): > 100 µg/mL | zone of inhibition at 100 µg/mL (Escherichia coli [15]): 7 mm | zone of inhibition at 100 µg/mL (Staphylococcus aureus [16]): 8 mm | Activity [21]: 17.33 nmol | MIC (Bacillus subtilis [6]): 62 µg/mL (≈ 203 µM) | MIC (Aspergillus flavus [17]): > 100 µg/mL | zone of inhibition at 100 µg/mL (Bacillus subtilis [18]): 11 mm | Activity [22]: 16.63 nmol | zone of inhibition at 100 µg/mL (Candida albicans [19]): 18 mm | IC50 [20]: 16.9 µg/mL (≈ 55.3 µM) | MIC (Escherichia coli [8]): > 100 µg/mL

COc1ccccc1N1CCN(C(=O)/C=C/c2cc(OC)c3c(c2)OCO3)CC1
MIC (Staphylococcus aureus [2]): 16.4 µg/mL (≈ 41.4 µM) | Time (Mus musculus [9]): 59.16 s | MIC (Candida albicans [10]): 17 µg/mL (≈ 42.9 µM) | zone of inhibition at 100 µg/mL (Pseudomonas aeruginosa [11]): 11 mm | zone of inhibition at 100 µg/mL (Aspergillus flavus [12]): 13.6 mm | IC50 [13]: 14.7 µg/mL (≈ 37.1 µM) | Time (Mus musculus [14]): 124.2 s | MIC (Pseudomonas aeruginosa [4]): 20 µg/mL (≈ 50.4 µM) | zone of inhibition at 100 µg/mL (Escherichia coli [15]): 9 mm | zone of inhibition at 100 µg/mL (Staphylococcus aureus [16]): 14 mm | MIC (Bacillus subtilis [6]): 15 µg/mL (≈ 37.8 µM) | MIC (Aspergillus flavus [17]): 23 µg/mL (≈ 58 µM) | zone of inhibition at 100 µg/mL (Bacillus subtilis [18]): 16 mm | zone of inhibition at 100 µg/mL (Candida albicans [19]): 14.1 mm | IC50 [20]: 19.4 µg/mL (≈ 48.9 µM) | MIC (Escherichia coli [8]): 20 µg/mL (≈ 50.4 µM)

COc1cc(/C=C/C(=O)N2CCC(C)CC2)cc2c1OCO2
MIC (Staphylococcus aureus [2]): 24 µg/mL (≈ 79.1 µM) | Time (Mus musculus [9]): 51.6 s | MIC (Candida albicans [10]): 30 µg/mL (≈ 98.9 µM) | zone of inhibition at 100 µg/mL (Pseudomonas aeruginosa [11]): 9 mm | zone of inhibition at 100 µg/mL (Aspergillus flavus [12]): 12 mm | IC50 [13]: 15.3 µg/mL (≈ 50.4 µM) | Time (Mus musculus [14]): 104.9 s | MIC (Pseudomonas aeruginosa [4]): 36 µg/mL (≈ 119 µM) | zone of inhibition at 100 µg/mL (Escherichia coli [15]): 10 mm | zone of inhibition at 100 µg/mL (Staphylococcus aureus [16]): 12 mm | MIC (Bacillus subtilis [6]): 25 µg/mL (≈ 82.4 µM) | MIC (Aspergillus flavus [17]): 30 µg/mL (≈ 98.9 µM) | zone of inhibition at 100 µg/mL (Bacillus subtilis [18]): 10 mm | zone of inhibition at 100 µg/mL (Candida albicans [19]): 10 mm | IC50 [20]: 19.8 µg/mL (≈ 65.3 µM) | MIC (Escherichia coli [8]): 40 µg/mL (≈ 132 µM)

COc1cc(/C=C/C(=O)N2CCN(C(C)=O)CC2)cc2c1OCO2
MIC (Staphylococcus aureus [2]): 14 µg/mL (≈ 42.1 µM) | Time (Mus musculus [9]): 55.83 s | MIC (Candida albicans [10]): 15 µg/mL (≈ 45.1 µM) | zone of inhibition at 100 µg/mL (Pseudomonas aeruginosa [11]): 14 mm | zone of inhibition at 100 µg/mL (Aspergillus flavus [12]): 10.4 mm | IC50 [13]: 23.2 µg/mL (≈ 69.8 µM) | Time (Mus musculus [14]): 116.2 s | MIC (Pseudomonas aeruginosa [4]): 18.7 µg/mL (≈ 56.3 µM) | zone of inhibition at 100 µg/mL (Escherichia coli [15]): 12 mm | zone of inhibition at 100 µg/mL (Staphylococcus aureus [16]): 11 mm | MIC (Bacillus subtilis [6]): 14 µg/mL (≈ 42.1 µM) | MIC (Aspergillus flavus [17]): 22 µg/mL (≈ 66.2 µM) | zone of inhibition at 100 µg/mL (Bacillus subtilis [18]): 16 mm | zone of inhibition at 100 µg/mL (Candida albicans [19]): 11 mm | IC50 [20]: 21.9 µg/mL (≈ 65.9 µM) | MIC (Escherichia coli [8]): 18 µg/mL (≈ 54.2 µM)

CN(C)CCCN1c2ccccc2CCc2ccccc21 [IMIPRAMINE]
Time (Mus musculus [9]): 32.17 s | Time (Mus musculus [14]): 79.5 s
